Assay results as given in patent publication US7662971B2, “Inhibitors of fatty acid amide hydrolase” (The Scripps Research Institute, priority 2002, dated 2010).

Assays:
mice [1] = assay: tail withdrawal / tail immersion test (thermal pain); type: in vivo
Experimental: (§1) FIG. 11 illustrates a bar graph showing the reduced thermal pain responses 60 minutes following the injection of OL-135 (10 mg/kg, i.p.). This test is the tail withdrawal test and there is no effect with the vehicle while there is marked delay after administration of the OL-135. [p<0.001; N=12 mice per group; results shown as means ±S.E.]
(§2) The mice received an i.p. injection of vehicle or SR 141716A (3 mg/kg); 10 minutes later all subjects were given OL-135 (10 mg/kg, i.p.) and then evaluated in the tail immersion test one hour after the second injection. (p<0.001 for OL-135-treated mice that were pretreated with vehicle versus either their pre-injection baseline latencies or OL-135 treated mice that were pretreated with SR 141716A.) Results are shown as means ±S. E. N=6 mice/group.

mice [2] = assay: hot plate test (thermal pain); type: in vivo
Experimental: as §1, with “12” for “11”, “hot plate” for “tail withdrawal”, “and” for “while”, “some” for “marked”, “[p<0.01;” for “[p<0.001;”
as §2, with “hot plate” for “tail immersion”, “[p<0.001” for “(p<0.001”, “141716A.” for “141716A.)”, “mice/group.]” for “mice/group.”

FAAH = molecular target: T1, FAAH (Rattus norvegicus, UniProt P97612); assay: FAAH enzyme inhibition, breakdown of 14C-oleamide to oleic acid; type: biochemical; conditions: 5-(2-pyridyl)-substituted oxazole head group, FIG. 4
T1 construct: using a solubilized liver plasma membrane extract containing FAAH; from tissue; host or cells: liver plasma membrane extract (solubilized)
T1 sequence (P97612 1-579): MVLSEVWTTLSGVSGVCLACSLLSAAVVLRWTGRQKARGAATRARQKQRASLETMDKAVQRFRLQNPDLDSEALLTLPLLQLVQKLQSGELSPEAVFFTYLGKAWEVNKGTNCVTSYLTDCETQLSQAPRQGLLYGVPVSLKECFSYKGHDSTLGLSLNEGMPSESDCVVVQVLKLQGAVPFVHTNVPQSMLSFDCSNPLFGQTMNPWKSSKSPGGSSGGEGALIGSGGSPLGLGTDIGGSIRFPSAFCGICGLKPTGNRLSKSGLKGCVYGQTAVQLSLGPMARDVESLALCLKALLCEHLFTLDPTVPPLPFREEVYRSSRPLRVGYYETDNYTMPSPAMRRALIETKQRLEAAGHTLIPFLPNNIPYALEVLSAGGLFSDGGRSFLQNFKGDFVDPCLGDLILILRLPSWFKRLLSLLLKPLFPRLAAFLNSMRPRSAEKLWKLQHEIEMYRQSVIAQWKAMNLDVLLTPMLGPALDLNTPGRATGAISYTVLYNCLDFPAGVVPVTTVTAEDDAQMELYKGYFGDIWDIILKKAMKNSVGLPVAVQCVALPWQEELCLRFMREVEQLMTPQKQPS
Experimental: All enzyme assays were performed at 20-23° C. using a solubilized liver plasma membrane extract containing FAAH in a reaction buffer of 125 mM Tris, 1 mM EDTA, 0.2% glycerol, 0.02% Triton X-100, 0.4 mM HEPES, pH 9.0 buffer (M. P. Patricelli, et al., (1998) Bioorg. Med. Chem. Lett. 8, 613-618; and J. E. Patterson, et al., (1996) J. Am. Chem. Soc. 118, 5938-5945). The initial rates of hydrolysis were monitored by following the breakdown of ^14C-oleamide to oleic acid as previously described (B. F. Cravatt, et al., (1995) Science 268, 1506-1509; and M. P. Patricelli, et al., (1998) Bioorg. Med. Chem. Lett. 8, 613-618). The inhibition was reversible, non time-dependent and linear least squares fits were used for all reaction progress curves and R^2 values were consistently >0.97. IC50 values were determined from the inhibition observed at 3-5 different inhibitor concentrations (from three or more trials at each inhibitor concentration) using the formula IC50=[I]/[(K0/Ki)−1], where K0 is the control reaction rate without inhibitor and Ki is the rate with inhibitor at concentration [I] (K. Conde-Frieboes, et al., (1996) J. Am. Chem. Soc. 118, 5519-5525). Ki values were determined by the Dixon method (x-intercepts of weighted linear fits of [I] versus 1/rate plots at constant substrate concentration, which were converted to Ki values using the formula Ki=−xint/[1+[S]/Km]).

[3] = SR 141716A 3 mg/kg i.p. 10 minutes before OL-135 10 mg/kg i.p., one hour after second injection

Q: For `CCCCCCCCCCCCCCCC(=O)c1ncc(-c2ccccn2)o1` [Compound 183, 1-(5-(Pyridin-2-yl)oxazol-2-yl)hexadecan-1-one], which melting point is on record?
A: 78 to 80 °C

Q: With `Cc1c(C(=O)NN2CCCCC2)nn(-c2ccc(Cl)cc2Cl)c1-c1ccc(Cl)cc1` [SR 141716A, reference compound] as the compound, how does the “effect on OL-135 analgesia, tail immersion test” value (mice [1]; [3]) read?
A: blocking the analgesic effects of OL-135

Q: And the “effect on OL-135 analgesia, hot plate test” value (mice [2]; [3])?
A: blocking the analgesic effects of OL-135

Q: With `CCCCCCCCCC(=O)c1ncc(-c2ccccn2)o1` [Compound 187, 1-(5-(Pyridin-2-yl)oxazol-2-yl)decan-1-one] as the compound, how does the melting point read?
A: 56 to 57 °C

Q: With `CCCCCCCCCCCCCC(=O)c1ncc(-c2ccccn2)o1` [Compound 184, 1-(5-(Pyridin-2-yl)oxazol-2-yl)tetradecan-1-one] as the compound, how does the melting point read?
A: 79 to 80 °C

Q: For `CCCCCCCCCCCCCCCCCC(=O)c1ncc(-c2ccccn2)o1` [Compound 182, 1-(5-(Pyridin-2-yl)oxazol-2-yl)octadecan-1-one], which melting point is on record?
A: 86 to 87 °C

Q: Which melting point does the source give for `CCCCCCCC(=O)c1ncc(-c2ccccn2)o1` [Compound 189, 1-(5-(Pyridin-2-yl)oxazol-2-yl)octan-1-one] here?
A: 56 °C

Q: With `O=C(CCCCCCc1ccccc1)c1ncc(-c2ccccn2)o1` [Compound 200, 1-Oxo-1-[5-(2-pyridyl)oxazol-2-yl]-7-phenylheptane] as the compound, how does the “difference in Ki between compounds 185 and 200” value (FAAH) read?
A: factor of two

Q: For `C#CCCCCCCCC(=O)c1ncc(-c2ccccn2)o1` [Compound 204, 1-Oxo-1-[5-(2-pyridyl)oxazol-2-yl]-9-decyne], which melting point is on record?
A: 64.5 to 65.5 °C

Q: For `C=CCCCCCCCC(=O)c1ncc(-c2ccccn2)o1` [Compound 203, 1-Oxo-1-[5-(2-pyridyl)oxazol-2-yl]-9-decene], which melting point is on record?
A: 55 to 57 °C

Q: With `CCC(=O)c1ncc(-c2ccccn2)o1` [Compound 194, 1-[5-(Pyridin-2-yl)oxazol-2-yl]propan-1-one] as the compound, how does the melting point read?
A: 65 to 67 °C

Q: Which melting point does the source give for `CCCCC(=O)c1ncc(-c2ccccn2)o1` [Compound 192, 1-(5-(pyridin-2-yl)oxazol-2-yl)pentan-1-one] here?
A: 36 to 37 °C

Q: Which melting point does the source give for `CCCCCCCCCCCC(=O)c1ncc(-c2ccccn2)o1` [Compound 185, 1-(5-(Pyridin-2-yl)oxazol-2-yl)dodecan-1-one] here?
A: 73 to 74 °C

Q: And the “difference in Ki between compounds 185 and 200” value (FAAH)?
A: factor of two

Q: Which results are given for `O=C(CCCCCCc1ccccc1)c1ncc(-c2ccccn2)o1` [OL-135]?
A: thermal pain response, tail withdrawal test (mice [1]; 10 mg/kg, i.p., 60 minutes following injection, p<0.001): marked delay; thermal pain response, hot plate test (mice [2]; 10 mg/kg, i.p., 60 minutes following injection, p<0.01): some delay

Q: Which melting point does the source give for `CCCCCC(=O)c1ncc(-c2ccccn2)o1` [Compound 191, 1-(5-(Pyridin-2-yl)oxazol-2-yl)hexan-1-one] here?
A: 49 to 50.5 °C

Q: For `O=C(CCCCc1ccccc1)c1ncc(-c2ccccn2)o1` [Compound 198, 1-Oxo-1-[5-(2-pyridyl)oxazol-2-yl]-5-phenylpentane], which melting point is on record?
A: 49 to 51 °C

Q: Which melting point does the source give for `O=C(CCCCCc1ccccc1)c1ncc(-c2ccccn2)o1` [Compound 199, 1-Oxo-1-[5-(2-pyridyl)oxazol-2-yl]-6-phenylhexane] here?
A: 43.5 to 45.5 °C

Q: For `CCCC(=O)c1ncc(-c2ccccn2)o1` [Compound 193, 1-[5-(Pyridin-2-yl)oxazol-2-yl]butan-1-one], which melting point is on record?
A: 54 to 55 °C

Q: With `CCCCCCCCC#CCCCCCCCC(=O)c1ncc(-c2ccccn2)o1` [Compound 205, 1-Oxo-1-[5-(2-pyridyl)oxazol-2-yl]-9-octadecyne] as the compound, how does the melting point read?
A: 41 °C

Q: Which melting point does the source give for `CCCCCCC(=O)c1ncc(-c2ccccn2)o1` [Compound 190, 1-(5-(Pyridin-2-yl)oxazol-2-yl)heptan-1-one] here?
A: 52 °C

Q: Which melting point does the source give for `O=C(CCCCCCCc1ccccc1)c1ncc(-c2ccccn2)o1` [Compound 201, 1-Oxo-1-[5-(2-pyridyl)oxazol-2-yl]-8-phenyloctane] here?
A: 72 to 73 °C

Q: Which melting point does the source give for `CCCCCCCCC(=O)c1ncc(-c2ccccn2)o1` [Compound 188, 1-(5-(Pyridin-2-yl)oxazol-2-yl)nonan-1-one] here?
A: 56 to 57 °C
